The record followed here is patent US20150125550A1, “APPLICATION OF 2,9-DI-SEC-BUTYL-1,10-PHENANTHROLINE AS A GLIOBLASTOMA TUMOR CHEMOTHERAPY” (priority 2013, published 2015).

SMILES strings stand for the structures.

In one assay the test system is A549 lung cancer cells. The experiment in a line: SRB colorimetric assay, A549 lung cancer cells, 72 hours. Format: cell-based, human. Conditions: Homo sapiens; A549, 72 hours, average ± SD of three curves. The method, then: A549 cells were cultured in RPMI media supplemented with 10% Fetal Bovine Serum and 1% nonessential amino acids. Sub-culturing was carried out every 3-4 days and was completed by removing the supernatant media and treating the adherent cells with 1.0 mL of a 0.25% (w/v) Trypsin/0.5 mM EDTA solution. The cells were then treated for approximately 3 minutes in a 37° C. incubator under a 5% CO2 atmosphere. Trypsinization was stopped by the addition of 7.0 mL of cell culture media, the suspended cells were collected by centrifugation, and the resulting cell pellet was re-suspended in fresh cell culture media. The cells were then diluted 1:4 by volume and incubated in a 37° C. incubator with 5% CO2. Cells were grown to 80-90% confluency prior to being used in the SRB colorimetric assays.
To test the effects of compounds 1-18 on the growth of A549 lung cancer cells, SRB cytotoxicity assays were done as described by Skehan et al. Cells were maintained in RPMI media as described above, collected, and diluted so that cells could be seeded in 96-well plates at a density of 4,000 cells/well. The 96-well plate was incubated overnight at 37° C. under a 5% CO2 atmosphere. Subsequently, sterifiltered DMSO stock solutions of the drugs were added to the wells in various concentrations (0-25 μM) and the 96-well plate was incubated at 37° C. under a 5% CO2 for an additional 72 hours. The supernatant cell culture medium was then removed and the cells were fixed for 1 hour with 10% cold trichloroacetic acid (100 μL per well). The trichloroacetic acid was discarded and the plates were washed 5 times with de-ionized water and air dried. After being stained with 0.4% SRB ([…]) and incubated at room temperature for 10 minutes, the cells were washed 5 times with 1% acetic acid and air dried. The bound SRB was dissolved in 10 mM unbuffered Tris, pH 10.5 ([…]) for 10 minutes at room temperature, and the absorbance at 492 nm was measured using a microplate reader. The percent cell growth was then calculated based upon the absorbance values relative to control samples not containing any drug. Each drug concentration was done in triplicate to yield a percent growth vs. drug concentration curve, and these growth curves were subsequently repeated two additional times. The growth curves from the three experiments were then plotted in GraphPad Prism and best-fit curves were used to generate the IC50 values for each curve.
A general note: Sulforhodamine B stains cellular protein and so reports cell mass.

For assay [1], the system named is primary murine astrocytes. The experiment in a line: SRB toxicity assay on primary murine astrocytes. Format: cell-based, murine (C57BL/6). To be noted: Mus musculus, Astrocyte. The method, then: The murine (C57BL/6) glioma cell line, GL-26, which is highly tumorigenic in the C57BL/6 mice. GL-26 cells were cultured in DMEM/F12 supplemented with 10% FCS, 1% penicillin/streptomycin, 1% L-glutamine and 1% non-essential amino acids. Human foreskin fibroblasts (HFFs) were cultured in DMEM/F12 supplemented with 10% FCS and 1% penicillin/streptomycin. Primary murine astrocytes were purified from C57BL/6 neonate brains and cultured in DMEM/F12 supplemented with 10% FCS, 1% non-essential amino acids, 1% Lglutamine, 50 IU/ml penicillin, […] and 10 mM Hepes buffer.
The sulforhodamine B (SRB) cytotoxicity assays were adapted from Skehan et al. (22). Briefly, either HFF, primary astrocytes or GL-26 cells were plated in 96-well plates at a density of 4,000 cells/well in a volume of 100 µL overnight at 37° C. and 5% CO2. DMSO stock solutions of SBP, MSBP or TMZ were used at a concentration range of 0.1-25 μM for 48 hr before the supernatant was discarded and the cells were fixed for 1 hr with 10% cold trichloroacetic acid (100 μL, per well). Cells used in recovery assay received fresh media for 48 hrs following the 48 hr drug incubation. The plate was then washed 5 times with de-ionized water, air dried, and stained with 0.4% SRB for 10 min (50 μL, per well). After washing 5 times in 1% acetic acid and air-drying, bound SRB was dissolved in 10 mM unbuffered Tris base (pH 10.5; 100 μL, per well). Bound SRB was then read by absorbance at 492 nm on a SpectraMax plate reader (Molecular Devices). The percent survival was then calculated based upon the absorbance values relative to control wells (0 μM SBP in 0.1% DMSO).

The test system of the next assay is GL-26 glioma. Nature of the assay: In-vivo intracranial GL-26 glioma model. Details: species or system C57BL/6 mice. The method, then:
Female C57BL/6 mice were obtained from Jackson Laboratories and maintained in a pathogen free environment under IACUC established protocols at the University of California Riverside. Mice were anesthetized with continuous administration of 2.5% isofluorane. Cultured GL-26 cells were harvested by trypsinization and 90,000 GL-26 cells in 3 μL of sterile Na+/K+ balanced PBS were injected intracranially. The injection was administered 1 mm anterior and 2 mm lateral to the junction of the coronal and sagittal sutures (bregma), at a depth of 2 mm using a stereotactic mouse frame. Care was taken in alternating injection order and group assignment (treated vs. non-treated) to assure equal GL-26 cell viability between the two treatment groups. SBP was administered intravenously through the retro-orbital route at a concentration of 10 mg/kg in 200 μL sterile Na+/K+ balanced PBS. Drug was administered one, seven, and 13 days after tumor implantation.
(§1) Histology: For brain tumor histology, mice were perfused intracardially with 4% formaldehyde in Na+/K+ balanced PBS and brains were extracted, incubated in 4% formaldehyde overnight followed by 30% sucrose in Na+/K+ balanced PBS. Brains were flash frozen in isopentane, embedded in optimal cutting temperature compound (OCT), cryosectioned in coronal sections (12 μm) and stained with hematoxylin and eosin. Another cohort of equivalently drug-treated mice was used for liver, lung and gut histology. The mice were then sacrificed on day 19, and the liver, lung and gut tissues were collected and placed in 4% formaldehyde in Na+/K+ balanced PBS overnight. The organs were then placed for 48 hrs in 70% EtOH before paraffin embedding and sectioning at 6 μm. Sections were then stained with hematoxylin and eosin and pathology was assessed blindly and independently by a trained pathologist. A TUNEL staining kit was obtained from TREVIGEN (NeuroTACS II In Situ Apoptosis Detection Kit, Cat#4823-30-K) and used for both ex-vivo slices and in-vitro staining according to manufacturers instructions.

The test system of the next assay is GL-26 glioma cells. Nature of the assay: TUNEL apoptosis staining of cultured cells. In kind it is cell-based, murine (C57BL/6). The protocol:
as §1

Broadly, the IC50 is the concentration at which inhibition is half-maximal. The inhibition is the change of the read-out against control, counted positive when it falls. For `CCC(C)c1ccc2ccc3ccc(C(C)CC)nc3c2n1` (stereo not drawn) [Compound 1, 2,9-di-sec-butyl-1,10-phenanthroline], the IC50 in the assay with A549 lung cancer cells was 0.42 ± 0.17 µM; in assay [1] (not reached at 25 μM, read-out: IC50 on non-cancerous glial cells (astrocytes)), greater than 25 µM. In assay [1] (6 μM, 48 hours, read-out: astrocyte growth inhibition), the inhibition at 6 µM came to 18%. In addition, the inhibition at 25 µM in assay [1] (25 μM, 48 hours, read-out: astrocyte growth inhibition) stood at 37.3 ± 0.9%. In the assay with GL-26 glioma (10 mg/kg i.v. days 1, 7, 13, 19-day trial), the “body weight regained, % of initial weight” value came out at 98.1±3.4%. For the same compound, the “tumor section area (pixel area) at the largest tumor cross-section” value in the assay with GL-26 glioma (10 mg/kg i.v. days 1, 7, 13, sacrificed day 19, N=3) worked out at 5489±1369. In the assay on GL-26 glioma (day 19), the “in situ TUNEL staining of brain tumor sections” value is “dark brown cytoplasmic and nuclear staining indicative of cell necrosis and increased DNA fragmentation”. In addition, the “tumors in treated mice smaller than in untreated control mice” value with GL-26 glioma (mouse, in vivo) was 5-10 times. Moreover, in the assay on GL-26 glioma cells, the “apoptosis (TUNEL) in cultured GL-26 cells” value was “kills GL-26 cells by inducing apoptosis”.
